Like-named read-outs stand apart in the source and are kept apart here.
Key:
Assay type in all cases: in vivo
[1] = test system: Eiysiphe graminis f. sp. tritici; experiment: Test A: wheat powdery mildew, preventive spray on wheat seedlings; conditions: for Test A disease control rating: wheat powdery mildew; for Test A disease control rating (100 = 100% disease control, 0 = no disease control): wheat seedlings sprayed to run-off, inoculated the following day, rating relative to controls, unmarked compounds (standard test rate)
Method in brief: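 Preventive test: seedlings inoculated with powdery mildew spores one day after run-off spraying of a suspension. Ratings after 7 days in a 20° C growth chamber express percent disease control versus controls.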

Puccinia recondita = experiment: Test B: wheat leaf rust, preventive spray on wheat seedlings; conditions: for Test B disease control rating: wheat leaf rust; for Test B disease control rating (100 = 100% disease control, 0 = no disease control): wheat seedlings sprayed to run-off, inoculated the following day, rating relative to controls, unmarked compounds (standard test rate)
Method in brief: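 Preventive test: P. recondita spores were applied one day after a run-off spray of compound suspension on wheat seedlings. Plants had 24 h at 20 °C in saturated air plus 6 days in a 20 °C growth chamber. Scoring is % disease control (100 = full) relative to controls.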

Pyricularia oryzae = conditions: for Test C disease control rating: rice blast; for Test C disease control rating (100 = 100% disease control, 0 = no disease control): rice seedlings sprayed to run-off, inoculated the following day, rating relative to controls, unmarked compounds (standard test rate)
Phytophthora infestans = conditions: for Test D disease control rating: tomato late blight; for Test D disease control rating (100 = 100% disease control, 0 = no disease control): tomato seedlings sprayed to run-off, inoculated the following day, rating relative to controls, unmarked compounds (standard test rate)
Botrytis cinerea = experiment: Test E: gray mold, preventive spray on cucumber seedlings; conditions: for Test E disease control rating: gray mold on cucumber; for Test E disease control rating (100 = 100% disease control, 0 = no disease control): cucumber seedlings sprayed to run-off, inoculated the following day, rating relative to controls, unmarked compounds (standard test rate)
Method in brief: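 Preventive spray on cucumber seedlings used a suspension (3% acetone, 250 ppm Trem 014), applied to run-off one day before inoculation with Botrytis cinerea spores. Plants were held 48 h at 20° C in saturated air, then 5 days at 20° C. Percent disease control was scored relative to untreated plants.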

[2] = 100 = 100% disease control, 0 = no control relative to controls, unmarked entries (standard test concentration)
[3] = 100 = 100% disease control, 0 = no control, unmarked entries (standard test concentration)

Row | Compound | Test A disease control rating [1, 2] [%] | Test B disease control rating (Puccinia recondita; [3]) [%] | Test C disease control rating (Pyricularia oryzae; [3]) [%] | Test D disease control rating (Phytophthora infestans; [3]) [%] | Test E disease control rating (Botrytis cinerea; [3]) [%] | also measured
1 | C[C@H](COc1cc(F)cc(F)c1)NC(=O)C(C#N)C(C)(C)C (single isomer, unassigned) [184a] | 62 | 0 | 74 | 0 | 6 | –
2 | C=CC(C)(C)C(C#N)C(=O)NC(C)COc1cc(C)ccc1F (mixture of isomers) [compound 282] | – | – | – | – | – | Test A disease control rating (100 = 100% disease control, 0 = no disease control) [1]: 0%; Test B disease control rating (100 = 100% disease control, 0 = no disease control) (Puccinia recondita): 0%; Test C disease control rating (100 = 100% disease control, 0 = no disease control) (Pyricularia oryzae): 100%; Test D disease control rating (100 = 100% disease control, 0 = no disease control) (Phytophthora infestans): 24%; Test E disease control rating (100 = 100% disease control, 0 = no disease control) (Botrytis cinerea): 0%
3 | C[C@H](COc1cc(F)ccc1Br)NC(=O)C(C#N)C(C)(C)C (single isomer, unassigned) [166a] | 0 | 0 | 99 | 76 | 58 | –
4 | CC(COc1cc(Cl)ccc1C#N)NC(=O)C(C#N)C(C)(C)C (mixture of isomers) [compound 43] | 0 | 0 | 86 | 66 | 0 | –
5 | Cc1ccccc1OCC(C)NC(=O)C(C#N)C(C)(C)C (mixture of isomers) [compound 19] | 0 | 0 | 97 | 0 | 0 | –
6 | Cc1ccc(Cl)c(OC[C@@H](C)NC(=O)C(C#N)C(C)(C)C)c1 (single isomer, unassigned) [15a] | 0 | 28 | 97 | 92 | 86 | –
7 | CC(COc1ccccc1CC#N)NC(=O)C(C#N)C(C)C(C)(C)C (mixture of isomers) [compound 61] | – | – | – | – | – | Test A disease control rating ([1]; tested at 40 ppm): 74%; Test B disease control rating (Puccinia recondita; tested at 40 ppm): 0%; Test C disease control rating (Pyricularia oryzae; tested at 40 ppm): 73%; Test D disease control rating (Phytophthora infestans; tested at 40 ppm): 0%; Test E disease control rating (Botrytis cinerea; tested at 40 ppm): 0%
8 | CCC1(C(=O)NCC=C(C)c2ccccc2)C(C)C1(Cl)Cl (stereo not shown) [compound 268] | – | – | – | – | – | Test A disease control rating (100 = 100% disease control, 0 = no disease control) [1]: 38%; Test B disease control rating (100 = 100% disease control, 0 = no disease control) (Puccinia recondita): 0%; Test C disease control rating (100 = 100% disease control, 0 = no disease control) (Pyricularia oryzae): 91%; Test D disease control rating (100 = 100% disease control, 0 = no disease control) (Phytophthora infestans): 88%; Test E disease control rating (100 = 100% disease control, 0 = no disease control) (Botrytis cinerea): 0%
